PubChem BioAssay AID1017 (Sanford-Burnham Center for Chemical Genomics, 2008)
Where “and” joins values, the source holds several entries; their conditions need not be identical. Equal values may be shown once.

Target: Intestinal-type alkaline phosphatase (Homo sapiens) (UniProt P09923)
Experiment: inhibition of intestinal alkaline phosphatase – biochemical, luminescence, dose response (AID 1017)
Details: purified human IAP, luminescent substrate; call rule not given here

Chain of Intestinal-type alkaline phosphatase (Homo sapiens) (P09923 whole entry, looked up): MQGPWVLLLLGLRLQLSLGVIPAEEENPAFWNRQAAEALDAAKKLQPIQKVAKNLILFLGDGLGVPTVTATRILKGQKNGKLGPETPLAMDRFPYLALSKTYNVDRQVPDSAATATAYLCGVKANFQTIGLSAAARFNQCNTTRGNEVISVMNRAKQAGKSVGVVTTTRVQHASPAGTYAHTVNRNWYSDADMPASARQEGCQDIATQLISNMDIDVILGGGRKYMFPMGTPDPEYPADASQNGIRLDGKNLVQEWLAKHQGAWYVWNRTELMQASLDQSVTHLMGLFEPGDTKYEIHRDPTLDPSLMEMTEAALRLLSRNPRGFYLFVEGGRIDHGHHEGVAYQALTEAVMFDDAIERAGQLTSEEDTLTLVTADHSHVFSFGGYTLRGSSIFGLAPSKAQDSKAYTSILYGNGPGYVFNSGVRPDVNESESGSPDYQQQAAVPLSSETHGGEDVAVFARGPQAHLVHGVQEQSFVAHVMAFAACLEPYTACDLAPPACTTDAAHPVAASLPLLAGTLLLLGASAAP

IC50, active:
O=C1C2CC=CCC2C(=O)N1c1n[nH]c(-c2ccccc2)n1 (stereo not drawn) 110 nM and 157 nM
O=C1C2CC=CCC2C(=O)N1c1n[nH]c(Cc2ccccc2)n1 (stereo not drawn) 539 nM and 922 nM
Oc1ccc(CCN=Cc2c(O)[nH]c3ccccc23)cc1O 9950 nM
